Measurements taken from US8975398B2, “NAMPT inhibitors” (AbbVie Inc., priority 2012, dated 2015).

Test system: PC3 cells
Test: NAMPT Cell Proliferation Assay (Cell Titer Glo; also performed in the presence of 0.3 mM nicotinamide mononucleotide)
Assay type: cell-based
Details: Homo sapiens, PC-3, 120 h, 5 days incubation, cell viability by Cell Titer Glo
Method: NAMPT Cell Proliferation Assay
PC3 cells were seeded in 96-well black plates (Corning #3904) at 500 cells/well in 90 μl of RPMI media containing 10% heat-inactivated FBS and incubated overnight at 37° C. and 5% CO2 to allow cells to attach to wells. The following day, test compounds were serially diluted in neat DMSO to 1000× final concentrations prior to dilution with RPMI media to 10× and 1% DMSO. Ten μL of the 10× compounds were then transferred to wells containing cells to produce a dose response of 10-fold dilutions from 10 μM to 1×10^−5 μM. Cells were incubated for 5 days at 37° C. and 5% CO2, then cell viability was measured using Cell Titer Glo reagent (Promega #G7571). Percent inhibition values were calculated and fitted to a sigmoidal dose response curves using Assay Explorer software to determine IC50s.

IC50 [nM]	Compound
1.17	CC(C)(C)Cn1cc(-c2ccc(NC(=O)C3CN(c4cccnn4)C3)cn2)cn1 [Example 924, N-{6-[1-(2,2-dimethylpropyl)-1H-pyrazol-4-yl]pyridin-3-yl}-1-(pyridazin-3-yl)azetidine-3-carboxamide]
2.39	O=C(Nc1ccc(CC2CCN(C(=O)CC3C[C@@H]4CC[C@H]3C4)CC2)cc1)C1CN(c2cccnn2)C1 (stereo partly drawn) [Example 933, N-[4-({1-[(1S,4R)-bicyclo[2.2.1]hept-2-ylacetyl]piperidin-4-yl}methyl)phenyl]-1-(pyridazin-3-yl)azetidine-3-carboxamide]
1.84	CCC(C)CC(=O)N1CCC(Cc2ccc(NC(=O)C3CN(c4cccnn4)C3)cc2)CC1 (centres unmarked) [Example 964, N-(4-{[1-(3-methylpentanoyl)piperidin-4-yl]methyl}phenyl)-1-(pyridazin-3-yl)azetidine-3-carboxamide]
69.4	O=C(Nc1ccc(-c2cc(C(F)(F)F)nn2-c2ccccc2)cc1)C1CN(c2cccnn2)C1 [Example 923, N-{4-[1-phenyl-3-(trifluoromethyl)-1H-pyrazol-5-yl]phenyl}-1-(pyridazin-3-yl)azetidine-3-carboxamide]
635	C[C@@H](NC(=O)c1ccc(NC(=O)C2CN(c3cccnn3)C2)cc1)C1CC1 [Example 985, N-(4-{[(1R)-1-cyclopropylethyl]carbamoyl}phenyl)-1-(pyridazin-3-yl)azetidine-3-carboxamide]
5.97	O=C(Nc1ccc(CC2CCN(C(=O)c3ccoc3)CC2)cc1)C1CN(c2cccnn2)C1 [Example 955, N-(4-{[1-(furan-3-ylcarbonyl)piperidin-4-yl]methyl}phenyl)-1-(pyridazin-3-yl)azetidine-3-carboxamide]
53.2	O=C(NCC1CCOCC1)c1ccc(NC(=O)C2CN(c3cccnn3)C2)cc1 [Example 1001, 1-(pyridazin-3-yl)-N-{4-[(tetrahydro-2H-pyran-4-ylmethyl)carbamoyl]phenyl}azetidine-3-carboxamide]
245	O=C(NCC1CC1)c1ccc(NC(=O)C2CN(c3cccnn3)C2)cc1 [Example 995, N-{4-[(cyclopropylmethyl)carbamoyl]phenyl}-1-(pyridazin-3-yl)azetidine-3-carboxamide]
71.1	Cn1nc(C(F)(F)F)cc1-c1ccc(NC(=O)C2CN(c3cccnn3)C2)cc1 [Example 874, N-{4-[1-methyl-3-(trifluoromethyl)-1H-pyrazol-5-yl]phenyl}-1-(pyridazin-3-yl)azetidine-3-carboxamide]
29.6	CC1(Cn2cc(-c3ccc(NC(=O)C4CN(c5cccnc5)C4)cc3)cn2)CCNCC1 [Example 877, N-(4-{1-[(4-methylpiperidin-4-yl)methyl]-1H-pyrazol-4-yl}phenyl)-1-(pyridin-3-yl)azetidine-3-carboxamide]
93.5	O=C(NCCC(F)(F)F)c1ccc(NC(=O)C2CN(c3cccnn3)C2)cc1 [Example 997, 1-(pyridazin-3-yl)-N-{4-[(3,3,3-trifluoropropyl)carbamoyl]phenyl}azetidine-3-carboxamide]
82.2	CC1(C)CC(NC(=O)c2ccc(NC(=O)C3CN(c4cccnn4)C3)cc2)CCO1 (centres unmarked) [Example 980, N-{4-[(2,2-dimethyltetrahydro-2H-pyran-4-yl)carbamoyl]phenyl}-1-(pyridazin-3-yl)azetidine-3-carboxamide]
681	Cc1ccc(N2CC[C@H](C(=O)Nc3ccc(C4CCN(C(=O)c5ccccc5)CC4)cc3)C2)nn1 [Example 893, (3S)—N-[4-(1-benzoylpiperidin-4-yl)phenyl]-1-(6-methylpyridazin-3-yl)pyrrolidine-3-carboxamide]
81.8	O=C(Nc1ccc(F)cc1)c1ccc(NC(=O)C2CN(c3cccnn3)C2)cc1 [Example 1009, N-{4-[(4-fluorophenyl)carbamoyl]phenyl}-1-(pyridazin-3-yl)azetidine-3-carboxamide]
61.2	CCC1CCCCN1CCNC(=O)c1ccc(NC(=O)C2CN(c3cccnn3)C2)cc1 (centres unmarked) [Example 976, N-(4-{[2-(2-ethylpiperidin-1-yl)ethyl]carbamoyl}phenyl)-1-(pyridazin-3-yl)azetidine-3-carboxamide]
3.38	Cc1ccnnc1N1CC[C@H](C(=O)Nc2ccc(C3CCN(C(=O)C(C)(C)C)CC3)cc2)C1 [Example 922, (3S)—N-{4-[1-(2,2-dimethylpropanoyl)piperidin-4-yl]phenyl}-1-(4-methylpyridazin-3-yl)pyrrolidine-3-carboxamide]
667	O=C(Nc1ccccc1)c1ccc(NC(=O)C2CN(c3cccnn3)C2)cc1 [Example 972, N-[4-(phenylcarbamoyl)phenyl]-1-(pyridazin-3-yl)azetidine-3-carboxamide]
13.3	Cc1ccc(N2CC(C(=O)Nc3ccc(-c4cnn(CC5(C)CCN(C6COC6)CC5)c4)cc3)C2)nn1 [Example 905, N-[4-(1-{[4-methyl-1-(oxetan-3-yl)piperidin-4-yl]methyl}-1H-pyrazol-4-yl)phenyl]-1-(6-methylpyridazin-3-yl)azetidine-3-carboxamide]

IC50 [nM]	Compound
2.96	Cc1ccc(C(=O)N2CCC(Cc3ccc(NC(=O)C4CN(c5cccnn5)C4)cc3)CC2)cn1 [Example 939, N-[4-({1-[(6-methylpyridin-3-yl)carbonyl]piperidin-4-yl}methyl)phenyl]-1-(pyridazin-3-yl)azetidine-3-carboxamide]
2.56	O=C(Nc1ccc(CC2CCN(C(=O)c3cccs3)CC2)cc1)C1CN(c2cccnn2)C1 [Example 947, 1-(pyridazin-3-yl)-N-(4-{[1-(thiophen-2-ylcarbonyl)piperidin-4-yl]methyl}phenyl)azetidine-3-carboxamide]
2.14	Cc1ccccc1C(=O)N1CCC(Cc2ccc(NC(=O)C3CN(c4cccnn4)C3)cc2)CC1 [Example 963, N-(4-{[1-(2-methylbenzoyl)piperidin-4-yl]methyl}phenyl)-1-(pyridazin-3-yl)azetidine-3-carboxamide]
6.4	O=C(Nc1ccc(CC2CCN(C(=O)CC3CC3)CC2)cc1)C1CN(c2cccnn2)C1 [Example 956, N-(4-{[1-(cyclopropylacetyl)piperidin-4-yl]methyl}phenyl)-1-(pyridazin-3-yl)azetidine-3-carboxamide]
5.36	O=C(NCc1ccccc1)c1ccc(NC(=O)C2CN(c3cccnn3)C2)cc1 [Example 1006, N-[4-(benzylcarbamoyl)phenyl]-1-(pyridazin-3-yl)azetidine-3-carboxamide]
2.76	O=C(Nc1ccc(CC2CCN(C(=O)c3ccsc3)CC2)cc1)C1CN(c2cccnn2)C1 [Example 942, 1-(pyridazin-3-yl)-N-(4-{[1-(thiophen-3-ylcarbonyl)piperidin-4-yl]methyl}phenyl)azetidine-3-carboxamide]
2.1	C#CCCC(=O)N1CCC(Cc2ccc(NC(=O)C3CN(c4cccnn4)C3)cc2)CC1 [Example 941, N-(4-{[1-(pent-4-ynoyl)piperidin-4-yl]methyl}phenyl)-1-(pyridazin-3-yl)azetidine-3-carboxamide]
1.93	CCC(C)C(=O)N1CCC(Cc2ccc(NC(=O)C3CN(c4cccnn4)C3)cc2)CC1 (centres unmarked) [Example 957, N-(4-{[1-(2-methylbutanoyl)piperidin-4-yl]methyl}phenyl)-1-(pyridazin-3-yl)azetidine-3-carboxamide]
5.82	CSCC(=O)N1CCC(Cc2ccc(NC(=O)C3CN(c4cccnn4)C3)cc2)CC1 [Example 932, N-[4-({1-[(methylsulfanyl)acetyl]piperidin-4-yl}methyl)phenyl]-1-(pyridazin-3-yl)azetidine-3-carboxamide]
0.879	Cc1ccnnc1N1CC(C(=O)Nc2ccc(C3CCN(C(=O)c4ccccc4)CC3)cc2)C1 [Example 906, N-[4-(1-benzoylpiperidin-4-yl)phenyl]-1-(4-methylpyridazin-3-yl)azetidine-3-carboxamide]
609	CC[C@@H](C)NC(=O)c1ccc(NC(=O)C2CN(c3cccnn3)C2)cc1 [Example 987, N-{4-[(2R)-butan-2-ylcarbamoyl]phenyl}-1-(pyridazin-3-yl)azetidine-3-carboxamide]
6.06	C=CCC(=O)N1CCC(Cc2ccc(NC(=O)C3CN(c4cccnn4)C3)cc2)CC1 [Example 950, N-(4-{[1-(but-3-enoyl)piperidin-4-yl]methyl}phenyl)-1-(pyridazin-3-yl)azetidine-3-carboxamide]
250	CC1(CNC(=O)c2ccc(NC(=O)C3CN(c4cccnn4)C3)cc2)COC1 [Example 999, N-(4-{[(3-methyloxetan-3-yl)methyl]carbamoyl}phenyl)-1-(pyridazin-3-yl)azetidine-3-carboxamide]
0.618	CC[C@H](C)C(=O)N1CCC(Cc2ccc(NC(=O)C3CN(c4cccnn4)C3)cc2)CC1 [Example 903, N-[4-({1-[(2S)-2-methylbutanoyl]piperidin-4-yl}methyl)phenyl]-1-(pyridazin-3-yl)azetidine-3-carboxamide]
70.9	O=C(Nc1ccccc1F)c1ccc(NC(=O)C2CN(c3cccnn3)C2)cc1 [Example 1010, N-{4-[(2-fluorophenyl)carbamoyl]phenyl}-1-(pyridazin-3-yl)azetidine-3-carboxamide]
602	CC1(Cn2cc(-c3ccc(NC(=O)C4CN(c5cccnn5)C4)cn3)cn2)CCNCC1 [Example 926, N-(6-{1-[(4-methylpiperidin-4-yl)methyl]-1H-pyrazol-4-yl}pyridin-3-yl)-1-(pyridazin-3-yl)azetidine-3-carboxamide]
1070	CC[C@H](C)NC(=O)c1ccc(NC(=O)C2CN(c3cccnn3)C2)cc1 [Example 978, N-{4-[(2S)-butan-2-ylcarbamoyl]phenyl}-1-(pyridazin-3-yl)azetidine-3-carboxamide]
